Results reported in US9566290B2, “Boron-containing small molecules” (Anacor Pharmaceuticals, Inc., priority 2005, dated 2017).
Values after ≈ are worked out from the molar mass of the structure shown. Like-named read-outs stand apart in the source and are kept apart here.

Columns and labels:
[1] = system: Saccharomyces cerevisiae strain ATCC 201388; experiment: MIC (NCCLS M27, YPD or synthetic defined media), haploid parental strain; assay type: cell-based; settings: Saccharomyces cerevisiae, read-out: MIC
Description: The haploid Saccharomyces cerevisiae strain ATCC 201388 was used in the selection of C10 resistant mutants. Spontaneous and EMS-induced resistant mutants were isolated from YPD agar plates containing 4×, 8×, 16×MIC of C10. All minimal inhibitory concentrations (MIC) were determined using NCCLS protocol M27 with the exception of using YPD or synthetic defined media. All yeast and molecular genetic manipulations were essentially performed as described by Guthrie C., et al., Methods in Enzymology, 350: Part B, (2002).
The minimal inhibitory concentration (MIC) was essentially performed following the NCCLS guidelines outlined in the M27 protocol with the exception of using YPD or synthetic defined media (SDM).

T. rubrum = experiment: MIC in the presence of 5% keratin powder; assay type: cell-based, Trichophyton rubrum
Description: Many antifungal agents strongly bind to keratin which not only reduces their antifungal potency but also may restrict their penetration into the nail. The affinities of the compounds for keratin powder was determined by a method described in Tatsumi, Antimicrobial Agents and Chemotherapy, 46(12):3797-3801 (2002).
(§1) (C10) is a novel compound in development for use as a topical antifungal treatment. The purpose of this study was to determine the minimum inhibitory concentration (MIC) for (C10) against 19 test strains of fungi including: Aspergillus fumigatus (A. fumigatus), Candida Albicans (C. albicans, both fluconazole sensitive and resistant strains), Candida glabrata (C. glabrata), Candida krusei (C. krusei), Cryptococcus neoformans (C. neoformans), Candida parapsilosis (C. parapsilosis), Candida tropicalis (C. tropicalis), Epidermophyton floccosum (E. floccosum), Fusarium solani (F. solani), Malassezia furfur (M. furfur), Malassezia pachydermatis (M. pachydermatis), Malassezia sympodialis (M. sympodialis), Microsporum audouinii (M. audouinii), Microsporum canis (M. canis), Microsporum gypseum (M. gypseum), Trichophyton mentagrophytes (T. mentagrophytes), Trichophyton rubrum (T. rubrum), Trichophyton tonsurans (T. tonsurans). Fungal growth was evaluated after exposure to different concentrations of (C10). […]

19 test strains of fungi = experiment: Antifungal MIC, microbroth dilution (NCCLS); assay type: cell-based; settings: MIC = over 90% reduction of growth, read-out: MIC values against all fungi tested
Source text: as §1, with “(C10). In addition, the MIC for (C10) against T. rubrum in the presence of 5% keratin powder and the minimum fungicidal concentration (MFC) for (C10) against T. rubrum and T. mentagrophytes were also determined. Ciclopirox and/or terbinafine and/or fluconazole and/or itraconazole were used as comparators and tested in a similar manner. These studies were conducted at NAEJA Pharmaceutical, Inc.” for “(C10).”

[2] = Solubility in pre-saturated n-octanol or water, visual inspection; assay type: physicochemical
Description: N-Octanol and water were mutually pre-saturated by vigorously stirring a mixture of both solvents for up to 12 h and the mixture was allowed to separate. Solubility in each solvent was determined by adding 10 μL of 20, 40, 200, 1000 and 5000 μg/mL of C10 in DMSO to the pre-saturated n-octanol or water. After the sample was vortexed for 10 sec, the sample was centrifuged for 10 min at ca. 3000 rpm. A visual inspection was made to determine if the sample was clear or if a pellet had formed on the bottom of the tube.

[3] = Stability at room temperature in water and octanol; assay type: physicochemical
Description: C10 (10 μL of 5000 μg/mL) was added both to 0.5 mL n-octanol and 0.5 mL water in triplicate. Samples were mixed. At 0 h and 24 h samples were stored at ca. −20° C. Twenty five L of sample was used for analysis.
For the octanol sample, 25 μL of ethanol, 25 μL of water and 300 μL of acetonitrile containing the internal standard was added. For the water sample, 25 μL of ethanol, 25 μL of octanol and 300 μL of acetonitrile containing the internal standard [60 mL of acetonitrile add 6 μL of PNP (1000 μg/mL)] was added. For the calibrators 25 μL of octanol, 25 μL of water and 300 μL of acetonitrile containing the internal standard was added. The sample was vortexed for 10 seconds. Two hundred μL of the organic layer were transferred into a clean deactivated autosampler vial.
A 1/concentration weighted linear regression was used for the quantitation of C10. All integration were performed with peak areas using Analyst version 1.3, Applied Biosystems. For C10, peak area ratios analyte to internal standard PNP were used for all quantitation.

OB1OCc2cc(F)ccc21 [C10, 5-fluorobenzo[c][1,2]oxaborol-1(3H)-ol]
MIC ([1]; ATCC201388, Table 1, haploid strain ATCC201388): 0.5 µg/mL (≈ 3.29 µM)
MIC ([1]; ATCC201388, Table 2, ATCC201388): 0.5 µg/mL (≈ 3.29 µM)
effect of addition of 5% keratin powder to the media on MIC (T. rubrum): did not effect the MIC
MIC (19 test strains of fungi): 0.25 to 2 µg/mL (≈ 1.65 to 13.2 µM)
solubility in octanol and water, in words ([2]; over the concentration range tested): very good
Solubility, Octanol Visual ([2]; targeted conc 0.800 μg/mL): Clear
Solubility, Water Visual ([2]; targeted conc 0.800 μg/mL): Clear
Solubility, Octanol Visual ([2]; targeted conc 4.00 μg/mL): Clear
Solubility, Water Visual ([2]; targeted conc 4.00 μg/mL): Clear
Solubility, Octanol Visual ([2]; targeted conc 20.0 μg/mL): Clear
Solubility, Water Visual ([2]; targeted conc 20.0 μg/mL): Clear
Solubility, Octanol Visual ([2]; targeted conc 100 μg/mL): Clear
Solubility, Water Visual ([2]; targeted conc 100 μg/mL): Clear
stability in pure water and octanol, in words ([3]; 24 h, without continuous mixing): stable over 24 h
Percent Remaining 24 h versus 0 g ([3]; Octanol): 93%
Mean ([3]; Octanol, 0 h): 115 µg/mL
Mean ([3]; Octanol, 24 h): 107 µg/mL
Percent Remaining 24 h versus 0 g ([3]; Water): 115%
Mean ([3]; Water, 0 h): 82.5 µg/mL
Mean ([3]; Water, 24 h): 95.0 µg/mL
